US9920040B2, “GPR40 agonists for the treatment of type II diabetes” (Janssen Pharmaceutica NV, priority 2015, dated 2018)
Several values for one entry are separate records, joined by “and”; a condition that tells them apart may be missing. Equal entries are not always repeated.

What was measured:
human GPR40 = target: T1, human GPR40 (Homo sapiens, UniProt O14842); test: GPR40 calcium flux assay, human GPR40; format: cell-based; details: transfected HEK293 cells stably expressing human GPR40; multiple values = repeated testing; read-out: hGPR40 Ca^2+ Assay EC50
T1 construct: expressed in transfected cells
Protocol: (§1) Compounds were tested in a calcium flux assay using transfected HEK293 cells stably expressing either human GPR40 or rat GPR40. Human GPR40 expressing cells were cultured in DMEM-High Glucose media supplemented with 10% fetal bovine serum, 1×L-Glutamine, 1×Penicillin/Streptomycin and 500 μg/mL G418. Rat GPR40 expressing cells were cultured in DMEM-High Glucose media supplemented with 10% fetal bovine serum and 1 μg/mL puromycin. Cells were plated into poly-D-lysine coated 384-well plates and cultured overnight in a 37° C. humidified tissue culture incubator under 5% CO2/[…] atmosphere. On the day of the experiment, the culture media was replaced with assay buffer (HBSS, 20 mM HEPES, 0.1% BSA) and the cells incubated at 37° C. for 1 h. Calcium-sensitive fluorescent dye (Fluo 8 No-Wash Calcium Dye, ABD Bioquest) was then added and the cells incubated for another 30 min at 37° C. followed by 15 min at room temperature while protected from the light. The cell plate and a plate of diluted compounds of Formula (I) were loaded into a fluorescent plate reader that added compounds onto the cells while measuring the fluorescence intensity of each well. The plate reader recorded fluorescence intensity at 1 second intervals for 8 min and provided the data for analysis in an Excel format. EC50 values were calculated using Prism (GraphPad) software.

rat GPR40 = target: T2, rat GPR40 (Rattus norvegicus, UniProt Q8K3T4); test: GPR40 calcium flux assay, rat GPR40; format: cell-based; details: transfected HEK293 cells stably expressing rat GPR40; multiple values = repeated testing; read-out: rGPR40 Ca^2+ Assay EC50
T2 construct: expressed in transfected cells
Protocol: as §1

T2 sequence (Q8K3T4 whole entry): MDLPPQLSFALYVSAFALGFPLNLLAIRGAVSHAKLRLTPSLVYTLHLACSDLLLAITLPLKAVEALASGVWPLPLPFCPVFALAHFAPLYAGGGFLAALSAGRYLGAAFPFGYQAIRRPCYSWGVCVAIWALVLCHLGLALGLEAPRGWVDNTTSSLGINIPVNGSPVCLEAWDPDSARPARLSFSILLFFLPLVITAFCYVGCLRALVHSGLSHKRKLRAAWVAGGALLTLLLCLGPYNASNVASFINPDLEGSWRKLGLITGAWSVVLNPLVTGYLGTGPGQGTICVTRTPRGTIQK
T1 sequence (O14842 whole entry): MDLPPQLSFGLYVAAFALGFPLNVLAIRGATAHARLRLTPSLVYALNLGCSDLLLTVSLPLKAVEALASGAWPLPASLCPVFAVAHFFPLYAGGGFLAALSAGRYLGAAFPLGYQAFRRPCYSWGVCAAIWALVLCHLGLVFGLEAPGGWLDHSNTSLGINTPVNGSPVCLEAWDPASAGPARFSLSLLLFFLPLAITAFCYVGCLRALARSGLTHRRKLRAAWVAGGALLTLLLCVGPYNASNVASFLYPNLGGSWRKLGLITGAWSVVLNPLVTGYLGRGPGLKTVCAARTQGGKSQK

Row | SMILES | EC50 (human GPR40) | EC50 (rat GPR40)
1 | COc1cc(-c2onc(COc3cccc([C@@H](CC(=O)O)C4CC4)c3)c2OCC2CC(C)(C)C2)c(F)cn1 [Cpd 8, (3S)-3-cyclopropyl-3-[3-[[4-[(3,3-dimethylcyclobutyl)methoxy]-5-(5-fluoro-2-methoxy-4-pyridyl)isoxazol-3-yl]methoxy]phenyl]propanoic acid] | 113 nM and 103 nM and 27 nM | 44 nM and 144 nM and 143 nM
2 | COc1ccc(F)c(-c2onc(CCc3cccc(C(CC(=O)O)C4CC4)c3)c2C2CC2)c1 (stereo not drawn) [Cpd 7, 3-cyclopropyl-3-[3-[2-[4-cyclopropyl-5-(2-fluoro-5-methoxy-phenyl)isoxazol-3-yl]ethyl]phenyl]propanoic acid] | 24 nM | 69 nM
3 | COc1ccc(F)c(-c2onc(COc3cccc([C@@H](CC(=O)O)C4CC4)c3)c2OC2CC(C)(C)C(C)(C)C2)c1 [Cpd 1, (3S)-3-cyclopropyl-3-[3-[[5-(2-fluoro-5-methoxy-phenyl)-4-(3,3,4,4-tetramethylcyclopentoxy)isoxazol-3-yl]methoxy]phenyl]propanoic acid] | 3 nM | 6 nM
4 | COc1cc(-c2onc(COc3cccc([C@@H](CC(=O)O)C4CC4)c3)c2OC2CC(C)(C)CC(C)(C)C2)c(F)cn1 [Cpd 2, (3S)-3-cyclopropyl-3-[3-[[5-(5-fluoro-2-methoxy-4-pyridyl)-4-(3,3,5,5-tetramethylcyclohexoxy)isoxazol-3-yl]methoxy]phenyl]propanoic acid] | 5 nM | 9 nM
5 | COc1cc(-c2scc(COc3cccc([C@@H](CC(=O)O)C4CC4)c3)c2C2=CCCC2(C)C)c2ccsc2c1 [Cpd 10, (3S)-3-cyclopropyl-3-[3-[[4-(5,5-dimethylcyclopenten-1-yl)-5-(6-methoxybenzothiophen-4-yl)-3-thienyl]methoxy]phenyl]propanoic acid] | 53 nM and 35 nM and 34 nM | 91 nM and 89 nM
6 | COc1ccc(F)c(-c2onc(COc3cc(C(CC(=O)O)C4CC4)c(Cl)cn3)c2C2=CCCC2(C)C)c1 (stereo not drawn) [Cpd 9, 3-[5-chloro-2-[[4-(5,5-dimethylcyclopenten-1-yl)-5-(2-fluoro-5-methoxy-phenyl)isoxazol-3-yl]methoxy]-4-pyridyl]-3-cyclopropyl-propanoic acid] | 53 nM | 138 nM
7 | COc1cc(-c2onc(COc3cccc([C@@H](CC(=O)O)C4CC4)c3)c2OC2CC(C)(C)C(C)(C)C2)c(F)cn1 [Cpd 4, (3S)-3-cyclopropyl-3-[3-[[5-(5-fluoro-2-methoxy-4-pyridyl)-4-(3,3,4,4-tetramethylcyclopentoxy)isoxazol-3-yl]methoxy]phenyl]propanoic acid] | 5 nM | 10 nM
8 | COc1ccc(F)c(-c2onc(COc3cccc([C@@H](CC(=O)O)C4CC4)c3)c2OCC2CC(C)(C)C2)c1 [Cpd 5, (3S)-3-cyclopropyl-3-[3-[[4-[(3,3-dimethylcyclobutyl)methoxy]-5-(2-fluoro-5-methoxy-phenyl)isoxazol-3-yl]methoxy]phenyl]propanoic acid] | 37 nM and 35 nM and 6 nM | 69 nM and 46 nM and 56 nM
9 | COc1cc(OC)cc(-c2scc(COc3cccc([C@@H](CC(=O)O)C4CC4)c3)c2C2=CCCC2(C)C)c1 [Cpd 23, (3S)-3-cyclopropyl-3-[3-[[5-(3,5-dimethoxyphenyl)-4-(5,5-dimethylcyclopenten-1-yl)-3-thienyl]methoxy]phenyl]propanoic acid] | 16 nM and 15 nM | 
10 | COc1ccc(-c2scc(COc3cccc([C@@H](CC(=O)O)C4CC4)c3)c2C2=CCCC2(C)C)c(F)c1 [Cpd 18, (3S)-3-cyclopropyl-3-[3-[[4-(5,5-dimethylcyclopenten-1-yl)-5-(2-fluoro-4-methoxy-phenyl)-3-thienyl]methoxy]phenyl]propanoic acid] | 305 nM and 152 nM | 
11 | COc1ccccc1-c1scc(COc2cccc([C@@H](CC(=O)O)C3CC3)c2)c1C1=CCCC1(C)C [Cpd 22, (3S)-3-cyclopropyl-3-[3-[[4-(5,5-dimethylcyclopenten-1-yl)-5-(2-methoxyphenyl)-3-thienyl]methoxy]phenyl]propanoic acid] | 47 nM and 41 nM | 

Further lines, results first:

Row | EC50 (human GPR40) | EC50 (rat GPR40) | SMILES
12 | 101 nM and 68 nM |  | CC1(C)CCC=C1c1c(COc2cccc([C@@H](CC(=O)O)C3CC3)c2)csc1-c1cccc2occc12 [Cpd 25, (3S)-3-[3-[[5-(benzofuran-4-yl)-4-(5,5-dimethylcyclopenten-1-yl)-3-thienyl]methoxy]phenyl]-3-cyclopropyl-propanoic acid]
13 | 7 nM and 5 nM |  | COc1ccc(F)c(-c2onc(COc3cccc([C@@H](CC(=O)O)C4CC4)c3)c2OC2CCCCC2)c1 [Cpd 46, (3S)-3-[3-[[4-(cyclohexoxy)-5-(2-fluoro-5-methoxy-phenyl)isoxazol-3-yl]methoxy]phenyl]-3-cyclopropyl-propanoic acid]
14 | 14 nM and 12 nM |  | COc1ccc(F)c(-c2onc(COc3cccc([C@@H](CC(=O)O)C4CC4)c3)c2OCC2CC2)c1 [Cpd 41, (3S)-3-cyclopropyl-3-[3-[[4-(cyclopropylmethoxy)-5-(2-fluoro-5-methoxy-phenyl)isoxazol-3-yl]methoxy]phenyl]propanoic acid]
15 | 83 nM and 74 nM |  | COc1cncc(-c2scc(COc3cccc([C@@H](CC(=O)O)C4CC4)c3)c2C2=CCCC2(C)C)c1 [Cpd 28, (3S)-3-cyclopropyl-3-[3-[[4-(5,5-dimethylcyclopenten-1-yl)-5-(5-methoxy-3-pyridyl)-3-thienyl]methoxy]phenyl]propanoic acid]
16 | 23 nM and 21 nM |  | COc1ccc(F)c(-c2onc(COc3cccc([C@@H](CC(=O)O)C4CC4)c3)c2-c2ccc(C(C)(C)C)s2)c1 [Cpd 45, (3S)-3-[3-[[4-(5-tert-butyl-2-thienyl)-5-(2-fluoro-5-methoxy-phenyl)isoxazol-3-yl]methoxy]phenyl]-3-cyclopropyl-propanoic acid]
17 | 30 nM and 26 nM |  | COc1ccc(F)c(-c2onc(COc3cccc([C@@H](CC(=O)O)C4CC4)c3)c2C=C(C)C)c1 [Cpd 36, (3S)-3-cyclopropyl-3-[3-[[5-(2-fluoro-5-methoxy-phenyl)-4-(2-methylprop-1-enyl)isoxazol-3-yl]methoxy]phenyl]propanoic acid]
18 | 24 nM and 21 nM |  | COc1cc(-c2onc(COc3cccc([C@@H](CC(=O)O)C4CC4)c3)c2OC2CCCCC2)c(F)cn1 [Cpd 48, (3S)-3-[3-[[4-(cyclohexoxy)-5-(5-fluoro-2-methoxy-4-pyridyl)isoxazol-3-yl]methoxy]phenyl]-3-cyclopropyl-propanoic acid]
19 | 26 nM and 24 nM |  | COc1cccc(-c2scc(COc3cccc([C@@H](CC(=O)O)C4CC4)c3)c2C2=CCCC2(C)C)c1 [Cpd 26, (3S)-3-cyclopropyl-3-[3-[[4-(5,5-dimethylcyclopenten-1-yl)-5-(3-methoxyphenyl)-3-thienyl]methoxy]phenyl]propanoic acid]
